In data set [1] the test system is Staphylococcus aureus. Briefly: Antibacterial activity against methicillin-resistant Staphylococcus aureus 669 assessed as bacterial growth inhibition incubated for 16 hrs by broth microdilution method. Format: functional.
Data set [2] concerns Staphylococcus aureus. Put plainly: Antibacterial activity against methicillin-resistant Staphylococcus aureus 1862 assessed as bacterial growth inhibition incubated for 16 hrs by broth microdilution method. Format: functional.
Data set [3] concerns Staphylococcus aureus. Briefly: Antibacterial activity against methicillin-resistant Staphylococcus aureus 991 assessed as bacterial growth inhibition incubated for 16 hrs by broth microdilution method. Format: functional. Background: Broth dilution looks for growth in wells or tubes with falling amounts of substance.
The nature of data set [4]: (§1) Cytotoxicity against human HepG2 cells assessed as cell growth inhibition. Format: toxicity, cell-based. Conditions: HepG2 cells.
Data set [5] relates to Staphylococcus aureus. Briefly: Antibacterial activity against Staphylococcus aureus ATCC 29213 assessed as bacterial growth inhibition incubated for 16 hrs by broth microdilution method. Format: functional.
The test system of the next data set is Vibrio alginolyticus. Briefly: Antibacterial activity against Vibrio alginolyticus ATCC 13214 assessed as bacterial growth inhibition incubated for 16 hrs by broth microdilution method. Format: functional.
Data set [6] concerns Staphylococcus aureus. Briefly: Antibacterial activity against methicillin-resistant Staphylococcus aureus shhs-A1 assessed as bacterial growth inhibition incubated for 16 hrs by broth microdilution method. Format: functional.
In a further data set the test system is Bacillus subtilis. Put plainly: Antibacterial activity against Bacillus subtilis 1064 assessed as bacterial growth inhibition incubated for 16 hrs by broth microdilution method. Format: functional.
For the next data set, the system named is Acinetobacter baumannii. Briefly: Antibacterial activity against Acinetobacter baumannii 19606 assessed as bacterial growth inhibition incubated for 16 hrs by broth microdilution method. Format: functional.
Data set [7] can be described thus: (§2) Cytotoxicity against human MCF7 cells assessed as cell growth inhibition. Format: toxicity, cell-based. To be noted: MCF7 cells.
For another data set, the system named is HepG2. The data set is described as §1. Format: toxicity, cell-based. To be noted: hepg2.
For a further data set, the system named is MCF7. Described as §2. Format: toxicity, cell-based. Conditions: mcf7.

In brackets after ≈: the same amount, converted by molar mass. Counter-ions that a name gives are not always drawn. Where only a bound is given, the exact number is not on record here.

The term MIC denotes the least concentration at which growth counts as inhibited. One may read the IC50 as the midpoint of a concentration-inhibition curve. As for `CCC[C@@H]1Cc2cc3c(c(O)c2C(=O)O1)-c1c(c(OC)c2oc4ccc(O[C@H]5C[C@@H](O)[C@H](O[C@H]6C[C@@H](O)[C@H](O[C@H]7C[C@@H](OC)[C@H](O)[C@@H](C)O7)[C@@H](C)O6)[C@@H](C)O5)c(O)c4c(=O)c2c1O)C[C@H]3O`, the MIC in the data set on Staphylococcus aureus [1] was 0.5 µg/mL (≈ 0.541 µM); with Staphylococcus aureus [2], 0.125 µg/mL (≈ 0.135 µM); in the data set on Staphylococcus aureus [3], 0.5 µg/mL (≈ 0.541 µM); with Staphylococcus aureus [5] it was 0.125 µg/mL (≈ 0.135 µM); in the data set with Vibrio alginolyticus, above 64 µg/mL; with Staphylococcus aureus [6], 0.125 µg/mL (≈ 0.135 µM). Besides, the MIC in the data set with Bacillus subtilis and in the data set with Acinetobacter baumannii was above 64 µg/mL each time. Further, the IC50 in [4] turned out to be 0.25 µM; in data set [7], 0.12 µM.

With `CCC[C@@H]1Cc2cc3c(c(O)c2C(=O)O1)-c1c(c(OC)c2oc4ccc(O[C@H]5C[C@@H](O)[C@H](O[C@H]6C[C@@H](O)[C@H](O[C@H]7C[C@@H](O)[C@H](O)[C@@H](C)O7)[C@@H](C)O6)[C@@H](C)O5)c(O)c4c(=O)c2c1O)[C@H](O)[C@H]3O`, the MIC with Staphylococcus aureus [1] is 2 µg/mL (≈ 2.16 µM); in the data set with Staphylococcus aureus [2], 1 µg/mL (≈ 1.08 µM); in the data set with Staphylococcus aureus [3] it was 2 µg/mL (≈ 2.16 µM); in the data set with Staphylococcus aureus [5], 2 µg/mL (≈ 2.16 µM); in the data set with Vibrio alginolyticus, above 64 µg/mL; with Staphylococcus aureus [6], 2 µg/mL (≈ 2.16 µM). The minimum inhibitory concentration (MIC) in the data set with Bacillus subtilis is 1 µg/mL (≈ 1.08 µM); with Acinetobacter baumannii, above 64 µg/mL. The IC50 in data set [4] is 4.4 µM; in [7] it was 1.8 µM.

With `CCCC(=O)Cc1cc2c(c(O)c1C(=O)O)-c1cc3c(c(O)c1CC2)C(=O)c1c(O)cc(O)cc1C3=O`, the MIC is 16 µg/mL (≈ 31.8 µM) in the data set with Staphylococcus aureus [1]; 16 µg/mL (≈ 31.8 µM) in the data set with Staphylococcus aureus [2]; 16 µg/mL (≈ 31.8 µM) with Staphylococcus aureus [3]; 32 µg/mL (≈ 63.7 µM) in the data set on Staphylococcus aureus [5]; above 64 µg/mL in the data set with Vibrio alginolyticus; 16 µg/mL (≈ 31.8 µM) with Staphylococcus aureus [6]. Moreover, the MIC in the data set on Bacillus subtilis and in the data set on Acinetobacter baumannii was above 64 µg/mL each time. Besides, the Activity entry with HepG2 and in the data set on MCF7 was “Non-Toxic” in each case.

On to `CCC[C@@H]1Cc2cc3c(c(O)c2C(=O)O1)-c1c(c(OC)c2oc4ccc(O[C@H]5C[C@@H](O)[C@H](O)[C@@H](C)O5)c(O)c4c(=O)c2c1O)[C@H](O)[C@H]3O`, for which the MIC in the data set on Staphylococcus aureus [1] is 2 µg/mL (≈ 3 µM); in the data set with Staphylococcus aureus [2] it was 1 µg/mL (≈ 1.5 µM); in the data set with Staphylococcus aureus [3], 2 µg/mL (≈ 3 µM); in the data set with Staphylococcus aureus [5] it was 0.5 µg/mL (≈ 0.75 µM); in the data set on Vibrio alginolyticus, above 64 µg/mL; in the data set with Staphylococcus aureus [6] it was 0.5 µg/mL (≈ 0.75 µM). The MIC with Bacillus subtilis was 4 µg/mL (≈ 6 µM); in the data set with Acinetobacter baumannii, above 64 µg/mL. Besides, the figures for the IC50 in data set [4] and in data set [7] were 31 µM and 0.76 µM, respectively.

In the case of `CCC[C@@H]1Cc2cc3c(c(O)c2C(=O)O1)-c1c(c(OC)c2oc4ccc(O)c(O)c4c(=O)c2c1O)[C@H](O)[C@H]3O`, the minimal inhibitory concentration (MIC) with Staphylococcus aureus [1] is 8 µg/mL (≈ 14.9 µM); in the data set on Staphylococcus aureus [2], 4 µg/mL (≈ 7.46 µM); with Staphylococcus aureus [3] it was 8 µg/mL (≈ 14.9 µM); with Staphylococcus aureus [5], 8 µg/mL (≈ 14.9 µM); with Vibrio alginolyticus it was 32 µg/mL (≈ 59.6 µM); in the data set on Staphylococcus aureus [6], 8 µg/mL (≈ 14.9 µM). Besides, the figures for the MIC with Bacillus subtilis and in the data set with Acinetobacter baumannii were 16 µg/mL (≈ 29.8 µM) and 64 µg/mL (≈ 119 µM), respectively. For the same compound, the IC50 was 13 µM in data set [4] and 0.46 µM in data set [7].

For the compound `CCC[C@@H]1Cc2cc3c(c(O)c2C(=O)O1)-c1c(c(OC)c2oc4ccc(O[C@H]5C[C@@H](O)[C@H](O[C@H]6C[C@@H](O)[C@H](O[C@H]7C[C@@H](OC)[C@H](O)[C@@H](C)O7)[C@@H](C)O6)[C@@H](C)O5)c(O)c4c(=O)c2c1O)[C@H](O)[C@H]3O`, the MIC in the data set with Staphylococcus aureus [1] was 2 µg/mL (≈ 2.13 µM); in the data set with Staphylococcus aureus [2], 1 µg/mL (≈ 1.06 µM); in the data set with Staphylococcus aureus [3], 1 µg/mL (≈ 1.06 µM); in the data set with Staphylococcus aureus [5], 2 µg/mL (≈ 2.13 µM); with Vibrio alginolyticus, above 64 µg/mL; with Staphylococcus aureus [6] it was 2 µg/mL (≈ 2.13 µM). Also, the MIC is 0.125 µg/mL (≈ 0.133 µM) with Bacillus subtilis and above 64 µg/mL in the data set with Acinetobacter baumannii. Further, the concentration for half-maximal inhibition (IC50) was found to be 7.9 µM in data set [4] and 4.1 µM in data set [7].

Turning to `O=C(O)c1cn(C2CC2)c2cc(N3CCNCC3)c(F)cc2c1=O` [CIPROFLOXACIN], the MIC in the data set on Vibrio alginolyticus and in the data set on Acinetobacter baumannii was 0.125 µg/mL (≈ 0.377 µM) throughout.

Take `COc1cccc2c1C(=O)c1c(O)c3c(c(O)c1C2=O)C[C@@](O)(C(=O)CO)C[C@@H]3O[C@H]1C[C@H](N)[C@H](O)[C@H](C)O1` [DOXORUBICIN HYDROCHLORIDE]: the IC50 in [4] is 3.1 µM.

For the compound `CN[C@H](CC(C)C)C(=O)N[C@H]1C(=O)N[C@@H](CC(N)=O)C(=O)N[C@H]2C(=O)N[C@H]3C(=O)N[C@H](C(=O)N[C@H](C(=O)O)c4cc(O)cc(O)c4-c4cc3ccc4O)[C@H](O)c3ccc(c(Cl)c3)Oc3cc2cc(c3O[C@@H]2O[C@H](CO)[C@@H](O)[C@H](O)[C@H]2O[C@H]2C[C@](C)(N)[C@H](O)[C@H](C)O2)Oc2ccc(cc2Cl)[C@H]1O` [VANCOMYCIN], in the data set with Bacillus subtilis, the MIC came out at 0.25 µg/mL (≈ 0.173 µM).

Values taken from ChEMBL document CHEMBL5532714, “Discovery of Kebanmycins with Antibacterial and Cytotoxic Activities from the Mangrove-Derived Streptomyces sp. SCSIO 40068” (J Nat Prod, 2024).
